Laboratory results taken from patent US5824771A, “Cyclic CRF agonists” (The Salk Institute for Biological Studies, priority 1997, dated 1998).
Bridge positions count the residues as written; N and C are the ends. Square brackets hold non-standard residues; d marks the D form. Peptide text beside a SMILES is read from it. Nle = CCCC[C@H](N)C(=O)O

What was measured:
[1] = system: rat anterior pituitary cells; assay: In vitro stimulation of ACTH and β-endorphin secretion by cultured rat pituitary cells, potency compared with oCRF (Standard) or r/hCRF; type: cell-based; details: for stimulation of secretion of ACTH and β-END-LI (testing by the general procedure), in words: general procedure of Example 1
Procedure: The cyclic CRF agonists are examined for their effects on the secretion of ACTH and β-endorphin in vitro and also in vivo. […] In vivo testing is carried out using the general procedure set forth in C. Rivier et al., Science, 218, 377 (1982).

[2] = Lowering of blood pressure on peripheral or iv administration; type: in vivo; details: peripheral administration

Row | SMILES | stimulation of secretion of ACTH and β-END-LI (testing by the general procedure), in words [1] | lowering of blood pressure when administered peripherally, in words [2] | in vitro biopotency, comparison in words ([1]; compared with the Standard or with a named analog)
1 | CCCC[C@H](NC(=O)[C@H](CCC(=O)O)NC(=O)[C@H](CC(C)C)NC(=O)[C@H](CCCC)NC(=O)[C@H](CCC(=O)O)NC(=O)[C@H](CCCNC(=N)N)NC(=O)[C@H](CC(C)C)NC(=O)[C@H](CC(C)C)NC(=O)[C@H](Cc1c[nH]cn1)NC(=O)[C@@H](Cc1ccccc1)NC(=O)[C@@H](NC(=O)[C@H](CC(C)C)NC(=O)[C@H](CC(=O)O)NC(=O)[C@H](CC(C)C)NC(=O)[C@H](CO)NC(C)=O)[C@@H](C)O)C(=O)N[C@@H](C)C(=O)N[C@@H](CCCCN)C(=O)N[C@@H](C)C(=O)N[C@@H](CCC(=O)O)C(=O)N[C@@H](CCC(N)=O)C(=O)N[C@@H](CCC(=O)O)C(=O)N[C@@H](C)C(=O)N[C@@H](CCC(=O)O)C(=O)N[C@H]1CCC(=O)NCCCC[C@@H](C(=O)N[C@@H](CC(N)=O)C(=O)N[C@@H](CCCNC(=N)N)C(=O)N[C@@H](CC(C)C)C(=O)N[C@@H](CC(C)C)C(=O)N[C@@H](CC(C)C)C(=O)N[C@@H](CCC(=O)O)C(=O)N[C@@H](CCC(=O)O)C(=O)N[C@@H](C)C(N)=O)NC(=O)[C@@H](C)NC(=O)[C@H](C)NC1=O [Example 16 A, (cyclo 30-33)[Ac-Ser^7, D-Phe^12, Nle^18,21, Glu^30, D-Ala^32, Lys^33]-AHC(7-41)] (Ac-SLDLT[dF]HLLRE[Nle]LE[Nle]AKAEQEAEEA[dA]KNRLLLEEA-NH2; lactam 24-27) | strongly stimulates the secretion of ACTH and β-END-LI | very significant lowering of blood pressure | 
2 | CCCC[C@H](NC(=O)[C@H](CCCCN)NC(=O)[C@H](CCCNC(=N)N)NC(=O)[C@H](CC(C)C)NC(=O)[C@H](CC(C)C)NC(=O)[C@H](CCC(=O)O)NC(=O)[C@@H](CC(C)C)NC(=O)[C@H](CO)NC(=O)[C@H](CC(C)C)NC(=O)[C@H](CC(=O)O)NC(=O)[C@@H](NC(=O)[C@H](CO)NC(C)=O)[C@@H](C)CC)C(=O)N[C@H](C(=O)N[C@@H](CCC(=O)O)C(=O)N[C@H](C(=O)N[C@@H](CCC(=O)O)C(=O)N[C@@H](CCCCN)C(=O)N[C@@H](CCC(N)=O)C(=O)N[C@@H](CCC(=O)O)C(=O)N[C@@H](CCCCN)C(=O)N[C@@H](CCC(=O)O)C(=O)N[C@@H](CCCCN)C(=O)N[C@@H](CCC(N)=O)C(=O)N[C@H]1CCC(=O)NCCCC[C@@H](C(=O)N[C@@H](CC(N)=O)C(=O)N[C@@H](CCCNC(=N)N)C(=O)N[C@@H](CC(C)C)C(=O)N[C@@H](CC(C)C)C(=O)N[C@@H](CC(C)C)C(=O)N[C@@H](CC(=O)O)C(=O)N[C@H](C(=O)N[C@H](C(N)=O)[C@@H](C)CC)[C@@H](C)O)NC(=O)[C@H](C)NC(=O)[C@H](C)NC1=O)[C@@H](C)CC)[C@@H](C)CC [Example 16 C, (cyclo 29-32)[Ac-Ser^6, D-Leu^11, Nle^17, Glu^29, Lys^32]-sauvagine(6-40)] (Ac-SIDLS[dL]ELLRK[Nle]IEIEKQEKEKQEAAKNRLLLDTI-NH2; lactam 24-27) | stimulates the secretion of ACTH and β-END-LI | very significant lowering of blood pressure | 
3 | CCCC[C@H](NC(=O)[C@H](CCCCN)NC(=O)[C@H](C)NC(=O)[C@H](CCCNC(=N)N)NC(=O)[C@H](Cc1c[nH]cn1)NC(=O)[C@@H](NC(=O)[C@H](CCCC)NC(=O)[C@H](CC(N)=O)NC(=O)[C@H](CCCNC(=N)N)NC(=O)[C@H](CC(C)C)NC(=O)[C@H](CCCC)NC(=O)[C@H](Cc1c[nH]cn1)NC(=O)[C@@H](Cc1ccccc1)NC(=O)[C@@H](NC(=O)[C@H](CC(C)C)NC(=O)[C@H](CC(=O)O)NC(=O)[C@@H](NC(=O)[C@H](CO)NC(C)=O)[C@@H](C)CC)[C@@H](C)O)[C@@H](C)CC)C(=O)N[C@@H](CCC(=O)O)C(=O)NCC(=O)N[C@@H](CCC(=O)O)C(=O)N[C@@H](CCCNC(=N)N)C(=O)N[C@@H](CCC(=O)O)C(=O)N[C@H]1CCC(=O)NCCCC[C@@H](C(=O)N[C@@H](CC(N)=O)C(=O)N[C@@H](CCCNC(=N)N)C(=O)N[C@@H](CC(N)=O)C(=O)N[C@@H](CC(C)C)C(=O)N[C@@H](CC(C)C)C(=O)N[C@@H](CC(=O)O)C(=O)N[C@@H](CCC(=O)O)C(=O)N[C@H](C(N)=O)C(C)C)NC(=O)[C@@H](Cc2c[nH]cn2)NC(=O)[C@H](C)NC1=O [Example 16 E D-His^32 analog] (Ac-SIDLT[dF]H[Nle]LRN[Nle]IHRAK[Nle]EGEREEA[dH]KNRNLLDEV-NH2; lactam 24-27) | stimulate the secretion of ACTH and β-END-LI | very significant lowering of blood pressure | increases biopotency over that of the D-Leu^32 analog
4 | CCCC[C@H](NC(=O)[C@H](CCCCN)NC(=O)[C@H](C)NC(=O)[C@H](CCCNC(=N)N)NC(=O)[C@H](Cc1c[nH]cn1)NC(=O)[C@@H](NC(=O)[C@H](CCCC)NC(=O)[C@H](CC(N)=O)NC(=O)[C@H](CCCNC(=N)N)NC(=O)[C@H](CC(C)C)NC(=O)[C@H](CCCC)NC(=O)[C@H](Cc1c[nH]cn1)NC(=O)[C@@H](Cc1ccccc1)NC(=O)[C@@H](NC(=O)[C@H](CC(C)C)NC(=O)[C@H](CC(=O)O)NC(=O)[C@@H](NC(=O)[C@H](CO)NC(C)=O)[C@@H](C)CC)[C@@H](C)O)[C@@H](C)CC)C(=O)N[C@@H](CCC(=O)O)C(=O)NCC(=O)N[C@@H](CCC(=O)O)C(=O)N[C@@H](CCCNC(=N)N)C(=O)N[C@@H](CCC(=O)O)C(=O)N[C@H]1CCC(=O)NCCCC[C@@H](C(=O)N[C@@H](CC(N)=O)C(=O)N[C@@H](CCCNC(=N)N)C(=O)N[C@@H](CC(N)=O)C(=O)N[C@@H](CC(C)C)C(=O)N[C@@H](CC(C)C)C(=O)N[C@@H](CC(=O)O)C(=O)N[C@@H](CCC(=O)O)C(=O)N[C@H](C(N)=O)C(C)C)NC(=O)[C@@H](CC(C)C)NC(=O)[C@H](C)NC1=O [Example 16 E, (cyclo 30-33)[Ac-Ser^7, D-Phe^12, Nle^14,18,24, Glu^30, D-Leu^32, Lys^33]-maggy urotensin(7-41)] (Ac-SIDLT[dF]H[Nle]LRN[Nle]IHRAK[Nle]EGEREEA[dL]KNRNLLDEV-NH2; lactam 24-27) | stimulate the secretion of ACTH and β-END-LI | very significant lowering of blood pressure | 
5 | CCCC[C@H](NC(=O)[C@H](CCC(=O)O)NC(=O)[C@@H](NC(=O)[C@H](CCCC)NC(=O)[C@H](CC(N)=O)NC(=O)[C@H](CCCNC(=N)N)NC(=O)[C@H](CC(C)C)NC(=O)[C@H](CC(C)C)NC(=O)[C@H](Cc1c[nH]cn1)NC(=O)[C@@H](Cc1ccccc1)NC(=O)[C@@H](NC(=O)[C@H](CC(C)C)NC(=O)[C@H](CC(=O)O)NC(=O)[C@@H](NC(=O)[C@H](CO)NC(C)=O)[C@@H](C)CC)[C@@H](C)O)[C@@H](C)CC)C(=O)N[C@@H](C)C(=O)N[C@@H](CCCNC(=N)N)C(=O)N[C@@H](CC(N)=O)C(=O)N[C@@H](CCC(=O)O)C(=O)N[C@@H](CC(N)=O)C(=O)N[C@@H](CCC(N)=O)C(=O)N[C@@H](CCCNC(=N)N)C(=O)N[C@@H](CCC(=O)O)C(=O)N[C@H]1CCC(=O)NCCCC[C@@H](C(=O)N[C@@H](CC(N)=O)C(=O)N[C@@H](CCCNC(=N)N)C(=O)N[C@@H](CCCCN)C(=O)N[C@@H](Cc2ccc(O)cc2)C(=O)N[C@@H](CC(C)C)C(=O)N[C@@H](CC(=O)O)C(=O)N[C@@H](CCC(=O)O)C(=O)N[C@H](C(N)=O)C(C)C)NC(=O)[C@@H](C)NC(=O)[C@H](C)NC1=O [Example 16 F, (cyclo 30-33)[Ac-Ser^7, D-Phe^12, Nle^18,21, Glu^30, D-Ala^32, Lys^33]-carp urotensin(7-41)] (Ac-SIDLT[dF]HLLRN[Nle]IE[Nle]ARNENQREEA[dA]KNRKYLDEV-NH2; lactam 24-27) | stimulate the secretion of ACTH and β-END-LI | very significant lowering of blood pressure | 
6 | CCCC[C@H](NC(=O)[C@H](CCCCN)NC(=O)[C@H](C)NC(=O)[C@H](CCCNC(=N)N)NC(=O)[C@H](Cc1c[nH]cn1)NC(=O)[C@@H](NC(=O)[C@H](CCCC)NC(=O)[C@H](CC(N)=O)NC(=O)[C@H](CCCNC(=N)N)NC(=O)[C@H](CC(C)C)NC(=O)[C@H](CCCC)NC(=O)[C@H](Cc1c[nH]cn1)NC(=O)[C@@H](Cc1ccccc1)NC(=O)[C@@H](NC(=O)[C@H](CC(C)C)NC(=O)[C@H](CC(=O)O)NC(=O)[C@@H](NC(=O)[C@H](CO)NC(C)=O)[C@@H](C)CC)[C@@H](C)O)[C@@H](C)CC)C(=O)N[C@@H](CCC(=O)O)C(=O)NCC(=O)N[C@@H](CCC(=O)O)C(=O)N[C@@H](CCCNC(=N)N)C(=O)N[C@@H](CCC(=O)O)C(=O)N[C@H]1CCC(=O)NCCCC[C@@H](C(=O)N[C@@H](CC(N)=O)C(=O)N[C@@H](CCCNC(=N)N)C(=O)N[C@@H](CC(N)=O)C(=O)N[C@@H](CC(C)C)C(=O)N[C@@H](CCCC)C(=O)N[C@@H](CC(=O)O)C(=O)N[C@@H](CCC(=O)O)C(=O)N[C@H](C(N)=O)C(C)C)NC(=O)[C@@H](CC(C)C)NC(=O)[C@H](C)NC1=O [Example 16 G, (cyclo 30-33)[Ac-Ser^7, D-Phe^12, Nle^14,18,24,38, Glu^30, D-Leu^32, Lys^33]-sole urotensin(7-41)] (Ac-SIDLT[dF]H[Nle]LRN[Nle]IHRAK[Nle]EGEREEA[dL]KNRNL[Nle]DEV-NH2; lactam 24-27) | stimulate the secretion of ACTH and β-END-LI | very significant lowering of blood pressure | 
